Key:
[1] = Potentiation of barbiturates, tranquillizers and ethanol; format: in vivo
Text: Additional pharmacological tests carried out with the preferred compound of the invention have shown that a non-sedative dose of this compound potentiates the hypnotic effect of the barbiturates as well as the sedative effect of tranquillizers such as meprobamate and diazepam.

[2] = traction test (balance, muscular tonus and strength); conditions: mouse, in vivo; oral, mice, 60 minutes after administration; read-out: ED50 (dose which causes 50% failures in the traction test)
[3] = Acute toxicity in rats; conditions: rat, in vivo
[4] = rota rod test (neurotoxicity); format: in vivo, mouse; conditions: for % of failures in rota rod test: mice, 30 min after administration
Method: The test used was that known as the rota rod test described by BOISSIER (Therapie 1958 XIII pp. 1074-1118).
This test aims at determining the ability of mice to coordinate their movements by seeing to what extent they can remain on a roller turning at a rate of 4 revolutions per minute for two minutes. The trial was carried out thirty minutes after administration by oral route of the compound to be studied and the percentage of failures was noted.
The value of this test is twofold. Failure on the part of the animals gives a very early indication of the slightest damage to the meuromuscular functions which cannot be discerned by any other means. Secondly, this test serves as an element of comparison for drawing up index figures involving the results obtained with other tests.

[5] = Action on the cardiovascular and respiratory system; format: in vivo, rat
[6] = spontaneous motoricity in the mouse; format: in vivo
Text: This test is described in U.S. Pat. No. 3,929,869.

[7] = "Electrically-provoked combat" test (anxiolytic action); format: in vivo, mouse; conditions: mice
Text: Under certain conditions, a pair of mice reacts to an electric stimulus by a series of combats which are provoked by the anxiety felt by the animals as a result of the electric shock. This anxiety is expressed by a combat with the other animal which is rendered responsible. For this reason, the test described hereunder can be considered as a means of evaluating the anxiolytic action of a compound. Two mice which have been previously on a diet consisting only of water are placed together in a cage. They are then submitted to a series of electric impulses of an intensity varying between 40 and 80 volts according to the sensitivity of the animals. The test is first carried out with untreated animals as controls and then with the same animals treated 30 minutes before the test with a dose of the compound to be studied.
Note is taken on the number of combats engaged. The results are expressed in percentage of decrease in the number of combats engaged by the treated animals in comparison with the number of combats registered before treatment.

[8] = Four plates test (anxiolytic action); format: in vivo, mouse
Text: This test, which is specific to the anxiolytics, was undertaken with the mouse, thirty minutes after the oral administration of the compound to be studied.
It consists in placing mice in a box with fairly high walls, of which the bottom comprises four square plates. These plates, which all have the same dimensions, are separated from each other by a central axis and are alternately electrified by the positive and negative poles of a source of electric current. There is a space of a few millimeters between adjacent plates.
The mouse placed in this apparatus explores it and thus passes over the different plates in succession. Note is taken of the number of times each animal passes over the plates during one minute. When the current is switched on, the mouse passing over the plates receives an electric shock (80 V), which provokes a gradual decrease in the exploratory movements, and finally brings the animals to a complete stop.
Anxiolytic agents enable the animals to become more or less indifferent to the electric shock.
The percentage of protection against anxiety given by compounds of the invention was calculated by comparing the number of times the control animals passed over the plates when electrified with the number of times the treated animals passed over the electrified plates.

[9] = mouse, in vivo, po, 1000 mg/kg
Text: Finally, the hypnotic action of Compound A was studied in mice by means of the test of the posture reflex, the animals being kept under observation during the four hours following the oral administration of the product.

[10] = Influence on acetylcholine-induced hypotension and bradycardia; format: in vivo; conditions: 100 mg/kg i.p., rat
Method: Similarly, at a dose of 100 mg/kg by intraperitoneal route, the preferred compound of the invention has no influence on acetylcholine-induced hypotension and bradycardia in the rat.

[11] = Effects on α- and β-adrenergic effects provoked by epinephrine; format: in vivo, rat; conditions: 200 mg/kg i.p.
[12] = Aggressivity of the isolated mouse (antiaggressive activity); format: in vivo
Text: If a male mouse is isolated in a cage for three to four weeks, it will spontaneously attack any other animal of the same species which is placed in the same cage.
Mice wer isolated for the period of time required to render them spontaneously aggressive. Two mice, one rendered aggressive and one in a normal non-aggressive state, were then placed together and note was taken of the number of attacks by the aggressive mouse which occurred over a period of three minutes.
Each batch was composed of five pairs of animals.
The aggressive animals of each batch were then treated by oral route with the compound to be studied which was administered in such a way that the aggressive animals of each batch received a higher dose than those of the preceding batch.
Thirty minutes after administration, the couples were placed together again for a further three minutes and the number of attacks noted.

[13] = Acute toxicity in mice; conditions: mouse, in vivo
Method: Acute toxicity was determined on Swiss E.O.P.S. mice, by oral route, using the technique of LITCHFIELD and WILCOXON (J. Pharmacol. Exp. Ther. […], 96, 99).

[14] = 3000 mg/kg oral, 8-day observation, read-out: deaths
[15] = comparison at 25%-protection dose of four plates test, 175 mg/kg
[16] = 100 and 200 mg/kg i.p., anaesthetized rat

## CCCC(CCC)(CCC)NC(N)=O [Compound A, 1-(1,1-Di-n-propyl-n-butyl)-urea]
[1]; in vivo
  potentiation of the effects of ethanol: slight potentiation
[1]; non-sedative dose
  hypnotic effect of the barbiturates: potentiates
  sedative effect of tranquillizers such as meprobamate and diazepam: potentiates
[2]
  TD50 at 1 h: 600 mg/kg
[3]; [14]
  mortality at 192 h: 10%
[3]; oral
  LD50 at 192 h: > 3000 mg/kg
[4]; 175 mg/kg oral
  % of failures in rota rod test: 0%
[4]; 600 mg/kg oral
  % of failures in rota rod test: 30%
[4]; at ED25 of four plates test
  sedative effect relative to reference products: least sedative
[4]; at the dose which provokes a 60%-decrease in the number of combats
  failures in the rota rod test: no failure
[4]; [15]
  Rota rod (% of failures): 0%
[5]; [16]
  cardiac frequency: does not modify
  respiratory frequency: does not modify
  systemic arterial blood pressure: does not modify
[5]; rat, in vivo
  action on the cardiovascular or respiratory system: no appreciable action
[6]; 175 mg/kg oral, mouse, 60 minutes, non-significant
  decrease in spontaneous motoricity: 12%
[6]; [15]
  Spontaneous motoricity (% of decrease): 12%
[6]; dose producing 80% decrease in the number of combats
  decrease in spontaneous motoricity at dose giving 80% reduction in combats: without any action on spontaneous motoricity
[7]; Mus musculus, 0.5 h, 58 mg/kg, 30 min before test, read-out: % of decrease in number of combats
  inhibition in vivo at 58 mg/kg: 50%
[7]; without action on spontaneous motoricity
  decrease in number of combats obtainable without altering spontaneous motoricity: 80%
[8]; 0.5 h, 175 mg/kg oral, mouse, 30 min after administration, read-out: % of protection against anxiety
  inhibition in vivo at 175 mg/kg: 25%
[8]; at ED25 of four plates test
  positive result in four plates test without sedative effect: without any sedative effect
[9]
  loss of the posture reflex: no loss of the posture reflex
[10]
  influence on acetylcholine-induced bradycardia: no influence
  influence on acetylcholine-induced hypotension: no influence
[11]
  α-adrenergic effects provoked by epinephrine: does not modify
  β-adrenergic effects provoked by epinephrine: does not modify
[12]; 100 mg/kg oral
  sedative effects at antiaggressive dose: entirely devoid of any sedative effects
[12]; 0.5 h, oral, isolated mouse, 30 min after administration, read-out: ED50 (50% fewer attacks)
  ED50: 142 mg/kg
[12]; 0.5 h, oral, isolated mouse, read-out: dose from which antiaggressive action is exerted
  minimal effective dose: 100 mg/kg
[13]; [14]
  mortality at 192 h: 5%
[13]; oral
  LD50: > 3000 mg/kg
